# From ChEMBL document CHEMBL1140870, “Interrogating the mechanism of a tight binding inhibitor of AIR carboxylase” (Bioorg Med Chem, 2009)
# System: not listed separately
# Experiment: Dissociation constant, pKa of the compound
# Assay type: physicochemical
row,pKa,Structure (SMILES)
1,0.3,Nc1c([N+](=O)[O-])ncn1[C@@H]1O[C@H](COP(=O)(O)O)[C@@H](O)[C@H]1O

# Target: T1, Multifunctional protein ADE2 (Gallus gallus, UniProt P38024)
# T1 sequence (P38024 whole entry): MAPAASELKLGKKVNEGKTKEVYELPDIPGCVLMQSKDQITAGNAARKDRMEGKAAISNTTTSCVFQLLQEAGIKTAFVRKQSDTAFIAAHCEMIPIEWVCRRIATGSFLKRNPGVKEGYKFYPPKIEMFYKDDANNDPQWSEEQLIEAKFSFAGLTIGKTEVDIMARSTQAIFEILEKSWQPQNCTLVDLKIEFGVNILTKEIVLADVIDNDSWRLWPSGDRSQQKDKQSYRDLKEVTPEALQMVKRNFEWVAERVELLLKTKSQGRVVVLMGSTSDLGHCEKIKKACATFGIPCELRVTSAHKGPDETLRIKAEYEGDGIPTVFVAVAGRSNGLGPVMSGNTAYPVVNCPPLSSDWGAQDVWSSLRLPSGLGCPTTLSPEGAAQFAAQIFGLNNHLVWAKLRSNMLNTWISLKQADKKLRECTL
# Experiment: Inhibition of Gallus gallus AIR carboxylase by CAIR decarboxylation assay
IC50 [µM],Ki [nM],Structure (SMILES)
> 100,,O=[N+]([O-])c1ccn([C@@H]2O[C@H](COP(=O)(O)O)[C@@H](O)[C@H]2O)c1
,6000,Nc1c(C(=O)O)cnn1[C@@H]1O[C@H](COP(=O)(O)O)[C@@H](O)[C@H]1O
,390,Nc1c([N+](=O)[O-])cnn1[C@@H]1O[C@H](COP(=O)(O)O)[C@@H](O)[C@H]1O
,22000,O=[N+]([O-])c1cnn([C@@H]2O[C@H](COP(=O)(O)O)[C@@H](O)[C@H]2O)c1

# Continued, compound first:
Structure (SMILES),IC50 [µM],Ki [nM]
Nc1c(C(=O)O)nnn1[C@@H]1O[C@H](COP(=O)(O)O)[C@@H](O)[C@H]1O,,2800
Nc1c(C=O)ncn1[C@@H]1O[C@H](COP(=O)(O)O)[C@@H](O)[C@H]1O,,62000
Nc1c([N+](=O)[O-])ncn1[C@@H]1O[C@H](COP(=O)(O)O)[C@@H](O)[C@H]1O,,0.34
O=[N+]([O-])c1cn([C@@H]2O[C@H](COP(=O)(O)O)[C@@H](O)[C@H]2O)cn1,,1300
